Experimental findings from patent US20240424019A1, “SHP1 MODIFIED DENDRITIC CELLS AND EXTRACELLULAR VESICLES DERIVED THEREFROM AND ASSOCIATED METHODS” (BOARD OF REGENTS, THE UNIVERSITY OF TEXAS SYSTEM, priority 2021, published 2024) are described below.

Structures are written as SMILES.

Assay [1] addresses purified SHP1 (Homo sapiens, UniProt P29350). Description: Microscale thermophoresis (MST) binding assay. Particulars: mean of triplicates; read-out: apparent dissociation constant Kd. As for the experimental part: FIG. 3A: Volcano plot of reverse phase protein array (RPPA) data of mouse BMDCs treated with VitE (50 μg/ml) compared to those treated with vehicle control with tumor conditioned media (TCM) for 48 hours (n=3 independent samples). […] The grey dashed line indicates P-value of 0.05. FIG. 3B: t-SNEs by CyTOF and quantification comparing the intensity of pY564-SHP1 in TADCs from the vehicle-or VitE-treated EMT6 tumors at day 15 post-implantation. FIG. 3C: Top, SHP1 knockdown in BMDCs was effective. Bottom, CFSE-dilution analysis of OT-1 T cells co-cultured with OVA protein-pulsed BMDCs (ratio 10:1) with knockdown of SHP1 by siPtpn6 versus siCtrl (n=3). Right, quantification of OT-1 T-cell numbers under the indicated condition. FIG. 3D: The binding of VitE to purified SHP1 is analyzed by microscale thermophoresis (MST) binding assay. […] FIG. 3E: Relative tyrosine phosphatase activity of SHP1 immunoprecipitated from LPS (100 ng/ml)-activated DC2.4 cells in the presence of indicated doses of VitE (mean of triplicates). FIG. 3F: SHP1 tyrosine phosphatase activity in LPS (100 ng/ml)-activated BMDCs (n=6) treated with vehicle-or VitE (50 μg/ml). Error bars, s.e.m. ns, no significant. *P<0.05, **P<0.01. ***P<0.001, ****P<0.0001. […]
In general terms: MST reads how a fluorescent partner responds to local heating, with and without ligand.

In assay [2] the test system is H-2Kb-SIINFEKL
Briefly: Antigen cross-presentation: H-2Kb-SIINFEKL on OVA-loaded DCs by flow cytometry. The assay is classed as cell-based, mouse. The source says: FIG. 4A: Flow cytometric analysis and quantification of H-2Kb-SIINFEKL in OVA-loaded sgCtrl or sgPtpn6-DC2.4 cells without or with TCM treatment (n=3). FIG. 4B: FCM analysis and quantification of H-2K^b-SIINFEKL in the vehicle or VitE-treated BMDCs with or without TCM treatment (n=5). Error bars, s.e.m. ns, no significant. *P<0.05, **P<0.01. ***P<0.001. ****P<0.0001.
The most critical function of DCs is the cross-presentation of tumor antigens to T-cells (Guermonprez et al., 2002). We assessed the membrane MHC-I complexes that were loaded with intracellularly processed OVA-derived peptide (H-2Kb-SIINFEKL) on OVA-loaded DCs with VitE-treatment. […] Therefore, VitE administration enhances the activation and antigen cross-presentation function of DCs to provoke antigen-specific antitumor T-cell immunity. We quantified H-2Kb-SIINFEKL in the vehicle-or VitE-treated sgCtrl-DC2.4 or sgPtpn6-DC2.4 (n=3). […] Thus. SHP1 inhibition in DCs by VitE treatment or Ptpn6 knockout enhances antigen cross-presentation that boosts CD8+ T-cell antitumor immunity.
Background: A flow cytometer gives signals particle by particle.

Sequence of purified SHP1 (P29350 whole entry): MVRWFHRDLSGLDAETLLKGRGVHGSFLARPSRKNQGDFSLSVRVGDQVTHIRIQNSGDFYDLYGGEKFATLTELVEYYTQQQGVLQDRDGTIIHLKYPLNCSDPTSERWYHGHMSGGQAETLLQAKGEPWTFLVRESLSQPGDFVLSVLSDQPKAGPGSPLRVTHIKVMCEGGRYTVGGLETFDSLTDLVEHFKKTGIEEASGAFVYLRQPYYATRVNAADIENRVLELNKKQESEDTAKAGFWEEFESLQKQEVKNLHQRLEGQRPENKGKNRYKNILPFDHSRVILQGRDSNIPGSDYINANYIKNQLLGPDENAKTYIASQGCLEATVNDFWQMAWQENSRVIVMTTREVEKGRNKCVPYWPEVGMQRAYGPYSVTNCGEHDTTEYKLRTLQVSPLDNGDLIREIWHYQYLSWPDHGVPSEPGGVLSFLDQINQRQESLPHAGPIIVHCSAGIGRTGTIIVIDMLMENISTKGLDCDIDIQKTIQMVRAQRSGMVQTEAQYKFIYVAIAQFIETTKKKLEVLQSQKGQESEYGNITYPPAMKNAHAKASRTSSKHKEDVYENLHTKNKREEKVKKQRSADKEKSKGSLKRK

Consider `Cc1c(C)c2c(c(C)c1O)CC[C@@](C)(CCC[C@H](C)CCC[C@H](C)CCCC(C)C)O2` [VitE, D-α-Tocopherol], for which the Kd in assay [1] came out at 39 µM. In assay [2] (VitE treatment of SHP1-knockout cells), the “H-2Kb-SIINFEKL molecules on sgPtpn6-DC2.4 cells” value is given as “did not further increase H-2Kb-SIINFEKL molecules”. The “H-2Kb-SIINFEKL molecules on DC2.4 cells” value in assay [2] (vs vehicle-treated sgCtrl-DC2.4 cells) was “significantly increased H-2Kb-SIINFEKL molecules on DC2.4 cells”.
